This note sets out measurements from ChEMBL document CHEMBL1126921, “Heterocyclic lactam derivatives as dual angiotensin converting enzyme and neutral endopeptidase 24.11 inhibitors” (J Med Chem, 1993).

The structures appear in SMILES notation.

Experiment [1] has as its target T1, Angiotensin-converting enzyme (Oryctolagus cuniculus, UniProt P12822).
T1 sequence (P12822 whole entry): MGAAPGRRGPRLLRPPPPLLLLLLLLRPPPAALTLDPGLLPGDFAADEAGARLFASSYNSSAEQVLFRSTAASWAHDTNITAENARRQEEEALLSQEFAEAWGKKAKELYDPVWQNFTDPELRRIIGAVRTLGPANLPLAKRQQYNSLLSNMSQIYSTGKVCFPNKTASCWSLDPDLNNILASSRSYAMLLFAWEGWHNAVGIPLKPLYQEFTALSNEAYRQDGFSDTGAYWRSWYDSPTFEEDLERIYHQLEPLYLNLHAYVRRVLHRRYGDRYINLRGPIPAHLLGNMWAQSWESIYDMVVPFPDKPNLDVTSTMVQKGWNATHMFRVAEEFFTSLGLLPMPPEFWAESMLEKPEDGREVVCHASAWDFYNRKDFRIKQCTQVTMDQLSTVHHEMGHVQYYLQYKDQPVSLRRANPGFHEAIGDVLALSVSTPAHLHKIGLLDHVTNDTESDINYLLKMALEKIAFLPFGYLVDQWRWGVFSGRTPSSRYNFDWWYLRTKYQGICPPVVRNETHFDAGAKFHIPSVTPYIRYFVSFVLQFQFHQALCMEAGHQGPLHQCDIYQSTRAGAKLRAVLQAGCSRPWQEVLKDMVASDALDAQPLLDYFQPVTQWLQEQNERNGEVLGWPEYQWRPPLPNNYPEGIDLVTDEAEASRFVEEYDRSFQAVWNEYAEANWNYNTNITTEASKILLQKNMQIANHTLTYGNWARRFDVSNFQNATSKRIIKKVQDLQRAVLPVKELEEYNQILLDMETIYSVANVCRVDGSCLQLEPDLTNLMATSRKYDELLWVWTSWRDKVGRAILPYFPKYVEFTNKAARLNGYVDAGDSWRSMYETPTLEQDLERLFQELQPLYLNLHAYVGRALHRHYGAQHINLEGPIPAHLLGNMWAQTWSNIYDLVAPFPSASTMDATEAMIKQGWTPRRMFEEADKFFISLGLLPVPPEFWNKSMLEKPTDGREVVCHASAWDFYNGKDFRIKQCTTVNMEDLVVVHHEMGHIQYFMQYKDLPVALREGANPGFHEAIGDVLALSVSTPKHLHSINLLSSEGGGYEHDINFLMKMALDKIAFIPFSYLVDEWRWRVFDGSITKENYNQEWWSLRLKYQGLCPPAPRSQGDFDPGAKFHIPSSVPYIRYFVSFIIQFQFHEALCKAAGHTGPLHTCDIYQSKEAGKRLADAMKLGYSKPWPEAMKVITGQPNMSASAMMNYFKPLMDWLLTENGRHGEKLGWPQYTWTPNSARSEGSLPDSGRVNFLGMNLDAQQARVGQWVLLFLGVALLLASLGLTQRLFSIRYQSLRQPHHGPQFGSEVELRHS
The experiment is described as follows: Tested in vitro for the inhibition of angiotensin converting enzyme from rabbit lung.

Experiment [2] deals with T2, Neprilysin (Rattus norvegicus, UniProt P07861).
T2 sequence (P07861 whole entry): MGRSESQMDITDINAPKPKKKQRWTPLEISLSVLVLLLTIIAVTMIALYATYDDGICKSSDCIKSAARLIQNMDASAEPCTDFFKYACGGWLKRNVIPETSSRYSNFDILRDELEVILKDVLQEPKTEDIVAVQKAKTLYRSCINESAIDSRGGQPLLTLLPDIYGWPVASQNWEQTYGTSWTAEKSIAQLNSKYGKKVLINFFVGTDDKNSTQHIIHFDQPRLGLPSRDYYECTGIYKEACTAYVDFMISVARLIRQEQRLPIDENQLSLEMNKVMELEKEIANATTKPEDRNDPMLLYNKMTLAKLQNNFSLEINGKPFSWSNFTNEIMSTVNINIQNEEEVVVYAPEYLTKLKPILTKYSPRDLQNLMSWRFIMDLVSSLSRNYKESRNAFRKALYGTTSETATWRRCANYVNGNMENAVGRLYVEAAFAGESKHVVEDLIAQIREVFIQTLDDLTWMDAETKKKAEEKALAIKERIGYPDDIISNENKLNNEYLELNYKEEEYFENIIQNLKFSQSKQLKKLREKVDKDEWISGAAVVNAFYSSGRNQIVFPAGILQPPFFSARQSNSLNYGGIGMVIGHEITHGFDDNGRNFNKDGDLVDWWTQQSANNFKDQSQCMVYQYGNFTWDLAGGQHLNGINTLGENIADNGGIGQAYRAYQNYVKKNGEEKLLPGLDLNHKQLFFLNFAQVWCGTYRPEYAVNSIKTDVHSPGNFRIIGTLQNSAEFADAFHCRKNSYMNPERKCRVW
The experiment is described as follows: Tested in vitro for the inhibition against neutral endopeptidase (NEP) from rat kidney.

In experiment [3] the test system is Rattus norvegicus. Kind of experiment: Tested for the plasma concentration based on ex vivo NEP inhibition after 0.5 hour following an oral dose of 10 mg/kg. Also noted: dose 10 mg/kg. The experiment is classed as functional, organism-based.
For experiment [4], the system named is Rattus norvegicus. Kind of experiment: Tested for the plasma concentration based on ex vivo NEP inhibition after 1 hour following an oral dose of 10 mg/kg. Format: functional, organism-based. Also noted: dose 10 mg/kg.
Experiment [5] deals with Rattus norvegicus. The experiment is described as follows: Tested for the plasma concentration based on ex vivo NEP inhibition after 2 hours following an oral dose of 10 mg/kg. Format: functional, organism-based. Also noted: dose 10 mg/kg.
Experiment [6] relates to Rattus norvegicus. Kind of experiment: Tested for the plasma concentration based on ex vivo NEP inhibition after 3 hours following an oral dose of 10 mg/kg. Format: functional, organism-based. Also noted: dose 10 mg/kg.
Experiment [7] has as its system Rattus norvegicus. The experiment is described as follows: Tested for the inhibition of angiotensin I (AI) pressor response after 0.5 hour following an oral dose of 10 mg/kg. The experiment is classed as functional.
The test system of experiment [8] is Rattus norvegicus. The experiment is described as follows: Tested for the inhibition of angiotensin I (AI) pressor response after 1 hour following an oral dose of 10 mg/kg. The experiment is classed as functional.
Experiment [9] concerns Rattus norvegicus. The experiment is described as follows: Tested for the inhibition of angiotensin I (AI) pressor response after 2 hours following an oral dose of 10 mg/kg. Format: functional.

By IC50 is commonly meant the concentration at which inhibition is half-maximal. The low end stands for inhibition by little substance, the high end for a need for much substance. As to `O=C1N[C@H](C(=O)O)CSCCCCCCCCC1CS` (stereo in doubt; 12b), the IC50 in [1] is 0.017 µM; in experiment [2], 0.167 µM.
For `O=C1N[C@H](C(=O)O)CSCCCCCCCC1CS` (single isomer, unassigned; isomer B) [listing 1 of 2 here], the Plasma concentration in experiment [3] stood at 1.81 µM; in [4], 0.32 µM; in [5], 0.17 µM; in experiment [6], 0.06 µM.
As for `O=C1N[C@H](C(=O)O)CSCCCCCCCC1CS` (single isomer, unassigned; isomer A), the IC50 was found to be 0.072 µM in experiment [1] and 0.19 µM in experiment [2].
For orientation: inhibition in vivo means the drop in the measured response relative to a control, in per cent. With `O=C(O)CN1C(=O)[C@@H](N[C@@H](CCc2ccccc2)C(=O)O)CCc2ccccc21` [BENAZEPRILAT], the inhibition in vivo at 10 mg/kg in experiment [7] came out at 100%; in [8], 86%; in experiment [9] it was 77%.
With `O=C1N[C@H](C(=O)O)CSCCCCCCCC1CS` (single isomer, unassigned; isomer B) [listing 2 of 2 here], the IC50 in experiment [1] turned out to be 0.012 µM; in experiment [2], 0.018 µM. For the same molecule, the inhibition in vivo at 10 mg/kg in experiment [7] was determined as 71%; in [8] it was 17%; in experiment [9], 0%.
As for `O=C1N[C@H](C(=O)O)CSCCCCCCCCC1CS` (stereo in doubt; 12a), the IC50 in experiment [1] turned out to be 4.6 µM; in experiment [2], 1.3 µM.
